{
  "source": "patent US11564922B2",
  "about": "“Methods of treating crohn's disease and ulcerative colitis” (AbbVie Inc., priority 2017, dated 2023)",
  "key": {"[1]": {"test": "Solid state forms of upadacitinib: hygroscopicity", "assay_type": "physicochemical"}, "[2]": {"test": "Solid state forms of upadacitinib: chemical and physical stability"}, "[3]": {"tested_on": "subjects with moderately to severely active ulcerative colitis", "test": "Example 20: Phase 3 maintenance study in ulcerative colitis (Study M14-234 Substudy 3), upadacitinib 15 mg or 30 mg QD vs placebo, 52 weeks", "assay_type": "in vivo, human", "details": "for Clinical remission per Adapted Mayo Score at Week 52, % / Clinical remission at Week 52, Treatment Difference vs. PBO / Discontinued from Study Drug, Adverse events (primary reason), % / Discontinued from Study Drug, Lack of efficacy (primary reason), %: ITTA; for Clinical remission per Adapted Mayo Score at Week 52, % / Clinical remission at Week 52, Treatment Difference vs. PBO: NRI-C; for Corticosteroid-free remission, % of patients: patients in remission at completion of the 8-week induction studies; for Clinical remission (per Adapted Mayo Score) / Endoscopic improvement / Histologic-endoscopic mucosal improvement / Corticosteroid-free clinical remission: Week 52; for Corticosteroid-free clinical remission: among patients with clinical remission after 8 weeks of induction"}, "[4]": {"tested_on": "subjects with moderately to severely active CD", "test": "Study M13-740: Phase 2 induction study, immediate-release upadacitinib vs placebo", "assay_type": "in vivo, human", "details": "induction phase of Study M13-740, immediate-release formulation, doses of 6 mg BID and higher"}, "[5]": {"test": "Pharmacokinetic exposure of once-daily formulation versus immediate-release formulation (AUC, Cmin, Cmax)", "assay_type": "in vivo, human", "details": "15 mg QD and 30 mg QD once-daily formulation versus 6 mg BID and 12 mg BID immediate-release formulation, respectively", "protocol": "This study evaluated two maintenance doses of upadacitinib at 15 mg and 30 mg QD. […] In addition, all the currently available PK, pharmacodynamic, safety, and efficacy data from upadacitinib studies were used to support the selection of these doses. […] Following induction with 45 mg QD, doses of 15 mg QD and 30 mg QD are expected to maintain clinical and endoscopic response while having better long-term safety profile compared to higher doses. Doses of 15 mg QD and 30 mg QD for up to 240 weeks were expected to be efficacious with an acceptable safety profile."}, "[6]": {"tested_on": "subjects with moderately to severely active ulcerative colitis", "test": "Example 19: Phase 3 induction study in ulcerative colitis (Study M14-675), upadacitinib 45 mg QD vs placebo", "quoted_text": "The primary objective of this study is to evaluate the efficacy and safety of upadacitinib 45 mg once daily (QD) compared to placebo in inducing clinical remission (per Adapted Mayo score) in subjects with moderately to severely active ulcerative colitis (UC).\nThe secondary objectives of the study are to evaluate the efficacy of upadacitinib 45 mg QD comparing with placebo in ranked secondary endpoints of achieving endoscopic improvement, endoscopic remission, clinical response per Adapted Mayo Score, clinical response per Partial Adapted Mayo score, histologic-endoscopic mucosal improvement, no bowel urgency, no abdominal pain, histologic improvement, mucosal healing, and change in IBDQ total score and FACIT-F score.\nMales and females between 18 and 75 years of age with a diagnosis of moderately to severely active UC. […] The study will consist of a mixed population: biologic-inadequate responders (bio-IR) and non-biologic-inadequate responders (non-bio-IR).\nThe randomization will be stratified by bio-IR status (bio-IR vs non-bio-IR), corticosteroid use (yes or no) and Adapted Mayo score (≤7 or >7) at Baseline. Within bio-IR, the randomization will be further stratified by number of prior biologic treatments (≤1 or >1). Within non-bio-IR, the randomization will be further stratified by previous biologic use (yes or no).\nThe blind from Part 1 will not be broken for the duration of the study as subjects will be assessed as clinical non-responders at the 8 Week Visit of Part 1 and will be moved to Part 2 for further treatment in the study without identifying their initial treatment assignment. All eligible subjects entering Part 2 will receive open-label treatment with upadacitinib 45 mg QD for 8 additional weeks (until Week 16). At Week 16, an endoscopy will be performed to evaluate the treatment effect. A flexible rectosigmoidoscopy is recommended. However, the use of flexible sigmoidoscopy or colonoscopy is at the investigators' discretion based on local practice.\nFor the assessment of the clinical endpoints, the stool frequency and the rectal bleeding subscore will be calculated as an average of the entries recorded into the subject's diary from the most recent consecutive 3-day period prior to each study visit. If diary entries from the 3 consecutive days prior to the visit are not available, the 3 most recent consecutive days in the last 10 days will be utilized. If data is not available for 3 consecutive days, the average of the entries from the most recent 3 non-consecutive days in the last 10 days will be utilized. Clinical endpoints of abdominal pain and bowel urgency from subject diaries will be measured at the same time period as the stool frequency and rectal bleeding subscores. Proportion of subjects who report no abdominal pain and proportion of subjects who report no bowel urgency in the 3 days will be estimated.\nSubjects will undergo a full colonoscopy with biopsy for histologic assessment during Screening with local investigator assessment for Mayo endoscopic subscore for initial eligibility assessment, confirmed by a central reader prior to randomization. At end of treatment (Week 8 in Part 1) a full colonoscopy or flexible sigmoidoscopy, depending on the extent of disease at Screening, will be performed.\nThe endoscopic subscore result from the central reader during the screening period will be used to evaluate the eligibility of a subject to enroll in the study and for all efficacy assessments at Week 8 of Part 1.\nMale or female between 16 and 75 years of age at Baseline."}, "[7]": {"test": "Solid state forms of upadacitinib: solubility and bioavailability", "assay_type": "physicochemical"}},
  "note": "“Also recorded” adds a separate entry of the source.",
  "data": [
    {"compound": "CC[C@@H]1CN(C(=O)NCC(F)(F)F)C[C@@H]1c1cnc2cnc3[nH]ccc3n12.CC[C@@H]1CN(C(=O)NCC(F)(F)F)C[C@@H]1c1cnc2cnc3[nH]ccc3n12.O", "note": "[Freebase Hydrate Form C]", "values": [
      {"measurement": "Hygroscopicity", "setting": "[1]", "result": "low hygroscopicity"},
      {"measurement": "Chemical stability", "setting": "[2]", "result": "good chemical stability"}
    ]},
    {"compound": "CC[C@@H]1CN(C(=O)NCC(F)(F)F)C[C@@H]1c1cnc2cnc3[nH]ccc3n12", "note": "[UPA, upadacitinib]", "values": [
      {"measurement": "Clinical remission per Adapted Mayo Score at Week 52, %", "setting": "[3]; Bio-IR, UPA 15 mg QD N = 71", "result": 40.5, "unit": "%"},
      {"measurement": "Clinical remission at Week 52, Treatment Difference vs. PBO", "setting": "[3]; Bio-IR, UPA 15 mg", "result": 33.0, "unit": "%"},
      {"measurement": "Clinical remission per Adapted Mayo Score at Week 52, %", "setting": "[3]; Bio-IR, UPA 30 mg QD N = 73", "result": 49.1, "unit": "%"},
      {"measurement": "Clinical remission at Week 52, Treatment Difference vs. PBO", "setting": "[3]; Bio-IR, UPA 30 mg", "result": 41.6, "unit": "%"},
      {"measurement": "Clinical remission per Adapted Mayo Score at Week 52, %", "setting": "[3]; Non-Bio-IR, UPA 15 mg QD N = 77", "result": 43.9, "unit": "%"},
      {"measurement": "Clinical remission at Week 52, Treatment Difference vs. PBO", "setting": "[3]; Non-Bio-IR, UPA 15 mg", "result": 26.3, "unit": "%"},
      {"measurement": "Clinical remission per Adapted Mayo Score at Week 52, %", "setting": "[3]; Non-Bio-IR, UPA 30 mg QD N = 81", "result": 54.0, "unit": "%"},
      {"measurement": "Clinical remission at Week 52, Treatment Difference vs. PBO", "setting": "[3]; Non-Bio-IR, UPA 30 mg", "result": 36.3, "unit": "%"},
      {"measurement": "Discontinued from Study Drug, Adverse events (primary reason), %", "setting": "[3]; UPA 15 mg QD (N = 148)", "result": "(2.7) %"},
      {"measurement": "Discontinued from Study Drug, Lack of efficacy (primary reason), %", "setting": "[3]; UPA 15 mg QD (N = 148)", "result": "(23.6) %"},
      {"measurement": "Discontinued from Study Drug, Adverse events (primary reason), %", "setting": "[3]; UPA 30 mg QD (N = 154)", "result": "(5.2) %"},
      {"measurement": "Discontinued from Study Drug, Lack of efficacy (primary reason), %", "setting": "[3]; UPA 30 mg QD (N = 154)", "result": "(7.8) %"}
    ]},
    {"compound": "CC[C@@H]1CN(C(=O)NCC(F)(F)F)C[C@@H]1c1cnc2cnc3[nH]ccc3n12", "note": "[Freebase Hydrate Form B]", "values": [
      {"measurement": "Physical stability", "setting": "[2]", "result": "not physically stable; also recorded: not stable after isolation at ambient conditions"}
    ]},
    {"compound": "CC[C@@H]1CN(C(=O)NCC(F)(F)F)C[C@@H]1c1cnc2cnc3[nH]ccc3n12", "note": "[Freebase Anhydrate Form D]", "values": [
      {"measurement": "Hygroscopicity", "setting": "[1]", "result": "reversibly hygroscopic"},
      {"measurement": "Water content (hygroscopicity)", "setting": "[1]; 90% RH at 25° C.", "result": "up to 1.8%"},
      {"measurement": "Physical stability", "setting": "[2]", "result": "metastable relative to Freebase Hydrate Form C"}
    ]},
    {"compound": "CC[C@@H]1CN(C(=O)NCC(F)(F)F)C[C@@H]1c1cnc2cnc3[nH]ccc3n12", "note": "[upadacitinib, (3S,4R)-3-ethyl-4-(3H-imidazo[1,2-a]pyrrolo[2,3-e]pyrazin-8-yl)-N-(2,2,2-trifluoroethyl)pyrrolidine-1-carboxamide]", "values": [
      {"measurement": "clinical and endoscopic efficacy compared to placebo", "setting": "[4]", "result": "demonstrated the clinical and endoscopic efficacy"},
      {"measurement": "Clinical remission per Adapted Mayo score at Week 52, proportion of subjects", "setting": "[3]; 15 mg QD maintenance after 8 weeks 45 mg QD induction", "result": 42.3, "unit": "%"},
      {"measurement": "Safety and tolerability", "setting": "[3]; 15 mg and 30 mg QD, 52 weeks", "result": "generally safe and well tolerated"},
      {"measurement": "Corticosteroid-free remission, % of patients", "setting": "[3]; 15 mg cohort", "result": 57, "unit": "%"},
      {"measurement": "Clinical remission (per Adapted Mayo Score)", "setting": "[3]; 15 mg once daily (n = 148)", "result": 42, "unit": "%"},
      {"measurement": "Endoscopic improvement", "setting": "[3]; 15 mg once daily (n = 148)", "result": 49, "unit": "%"},
      {"measurement": "Histologic-endoscopic mucosal improvement", "setting": "[3]; 15 mg once daily (n = 148)", "result": 35, "unit": "%"},
      {"measurement": "Corticosteroid-free clinical remission", "setting": "[3]; 15 mg once daily, N = 47", "result": 57, "unit": "%"},
      {"measurement": "Clinical remission per Adapted Mayo score at Week 52, proportion of subjects", "setting": "[3]; 30 mg QD maintenance after 8 weeks 45 mg QD induction", "result": 51.7, "unit": "%"},
      {"measurement": "Corticosteroid-free remission, % of patients", "setting": "[3]; 30 mg cohort", "result": 68, "unit": "%"},
      {"measurement": "Clinical remission (per Adapted Mayo Score)", "setting": "[3]; 30 mg once daily (n = 154)", "result": 52, "unit": "%"},
      {"measurement": "Endoscopic improvement", "setting": "[3]; 30 mg once daily (n = 154)", "result": 62, "unit": "%"},
      {"measurement": "Histologic-endoscopic mucosal improvement", "setting": "[3]; 30 mg once daily (n = 154)", "result": 49, "unit": "%"},
      {"measurement": "Corticosteroid-free clinical remission", "setting": "[3]; 30 mg once daily, N = 58", "result": 68, "unit": "%"},
      {"measurement": "Clinical response per Partial Adapted Mayo Score and clinical remission rate per Partial Mayo Score over time", "setting": "[3]; both upadacitinib groups (15 mg, 30 mg)", "result": "maintained over time until Week 52"},
      {"measurement": "Upadacitinib pharmacokinetics, induction vs maintenance periods", "setting": "[3]; subjects with UC", "result": "consistent between the induction and maintenance periods"},
      {"measurement": "daily area under the concentration-time curve (AUC)", "setting": "[5]", "result": "equivalent"},
      {"measurement": "minimum plasma concentration (Cmin) and maximum plasma concentration (Cmax)", "setting": "[5]", "result": "comparable"},
      {"measurement": "Rates of severe adverse events and AEs leading to study drug discontinuation compared to placebo", "setting": "[6]; 45 mg", "result": "lower"},
      {"measurement": "Onset of clinical response per Partial Adapted Mayo Score", "setting": "[6]; 45 mg QD", "result": "as early as Week 2"},
      {"measurement": "Patients with clinical response at week 8", "setting": "[6]; 45 mg QD", "result": "approximately 75%"},
      {"measurement": "Rates of neutropenia, lymphopenia, hepatic disorder, and CPK elevation compared to placebo", "setting": "[6]; 45 mg QD", "result": "higher"},
      {"measurement": "Tolerability of eight-week induction treatment", "setting": "[6]; 45 mg QD", "result": "well tolerated"},
      {"measurement": "Week 8 non-responding patients with clinical response by 16 weeks", "setting": "[6]; 45 mg QD, additional 8 weeks", "result": "approximately 50%"},
      {"measurement": "Deaths", "setting": "[6]; 45 mg QD, 8 weeks", "result": "No deaths were reported"},
      {"measurement": "Primary and ranked secondary endpoints vs placebo", "setting": "[6]; 45 mg QD, 8 weeks, all p<0.001", "result": "met primary and all ranked secondary endpoints"},
      {"measurement": "Proportion of subjects achieving clinical remission per Adapted Mayo score at Week 8", "setting": "[6]; 45 mg QD, SFS ≤1 and not greater than baseline, RBS 0, endoscopic subscore ≤1", "result": 33.5, "unit": "%"}
    ]},
    {"compound": "CC[C@@H]1CN(C(=O)NCC(F)(F)F)C[C@@H]1c1cnc2cnc3[nH]ccc3n12", "note": "[Amorphous Freebase]", "values": [
      {"measurement": "Hygroscopicity", "setting": "[1]", "result": "hygroscopic"},
      {"measurement": "Water content (hygroscopicity)", "setting": "[1]; 25° C./90% relative humidity", "result": "≤ 12", "unit": "% by weight"},
      {"measurement": "Solubility", "setting": "[7]", "result": "greater solubility"},
      {"measurement": "Chemical stability", "setting": "[2]", "result": "acceptable chemical stability"},
      {"measurement": "Stability to light and peroxide", "setting": "[2]", "result": "acceptable stability to light and peroxide"}
    ]}
  ]
}
